Read-outs that look alike come from different tables or passages of the source.
What was measured:
Assay type in all cases: in vitro ADME
CYP 1A2 = target: T1, CYP 1A2 (Homo sapiens, UniProt P05177); assay: CYP inhibition with probe substrate; conditions: probe substrate phenacetin
T1 sequence (P05177 1-516): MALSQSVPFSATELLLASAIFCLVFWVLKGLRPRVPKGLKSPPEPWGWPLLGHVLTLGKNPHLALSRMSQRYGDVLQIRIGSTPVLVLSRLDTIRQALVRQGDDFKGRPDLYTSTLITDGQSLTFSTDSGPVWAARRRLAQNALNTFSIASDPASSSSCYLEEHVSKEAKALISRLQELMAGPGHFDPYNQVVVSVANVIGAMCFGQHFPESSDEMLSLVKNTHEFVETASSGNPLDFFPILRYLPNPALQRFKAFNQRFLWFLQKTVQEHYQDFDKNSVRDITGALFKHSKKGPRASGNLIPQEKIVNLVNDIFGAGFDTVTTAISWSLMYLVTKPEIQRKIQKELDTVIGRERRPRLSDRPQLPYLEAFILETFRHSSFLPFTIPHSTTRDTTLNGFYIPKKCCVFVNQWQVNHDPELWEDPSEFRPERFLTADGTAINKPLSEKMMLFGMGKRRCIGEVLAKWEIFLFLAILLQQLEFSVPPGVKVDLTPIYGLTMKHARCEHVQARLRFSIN
Text: (§1) The inhibition of cytochrome P450 (CYP) isoforms and a range of cellular transporters (except multidrug and toxin extrusion [MATE] proteins), as well as the induction of CYP isoforms were investigated using previously described methods.

CYP 2C9 = CYP 2C9 (Homo sapiens, UniProt P11712); assay: CYP inhibition with probe substrate; conditions: probe substrate diclofenac
Text: as §1

CYP 2A6 = target: T2, CYP 2A6 (Homo sapiens, UniProt P11509); assay: CYP inhibition with probe substrate; conditions: coincubation, probe substrate coumarin; read-out: Co- IC50
T2 sequence (P11509 1-494): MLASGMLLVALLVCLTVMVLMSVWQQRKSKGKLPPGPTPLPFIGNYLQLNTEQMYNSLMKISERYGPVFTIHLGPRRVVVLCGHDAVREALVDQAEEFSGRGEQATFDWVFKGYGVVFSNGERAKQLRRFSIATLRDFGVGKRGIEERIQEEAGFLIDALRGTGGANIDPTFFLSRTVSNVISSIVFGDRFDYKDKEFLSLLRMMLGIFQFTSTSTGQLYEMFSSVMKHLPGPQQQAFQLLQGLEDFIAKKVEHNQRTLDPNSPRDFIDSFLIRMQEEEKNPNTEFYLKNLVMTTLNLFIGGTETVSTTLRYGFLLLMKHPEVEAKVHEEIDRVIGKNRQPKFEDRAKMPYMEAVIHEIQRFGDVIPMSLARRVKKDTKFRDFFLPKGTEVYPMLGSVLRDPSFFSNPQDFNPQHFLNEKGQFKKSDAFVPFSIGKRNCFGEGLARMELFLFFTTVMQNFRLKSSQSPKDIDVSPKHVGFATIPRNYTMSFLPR
Text: as §1

CYP 2B6 = target: T3, CYP 2B6 (Homo sapiens, UniProt P20813); assay: CYP inhibition with probe substrate; conditions: probe substrate bupropion
T3 sequence (P20813 1-491): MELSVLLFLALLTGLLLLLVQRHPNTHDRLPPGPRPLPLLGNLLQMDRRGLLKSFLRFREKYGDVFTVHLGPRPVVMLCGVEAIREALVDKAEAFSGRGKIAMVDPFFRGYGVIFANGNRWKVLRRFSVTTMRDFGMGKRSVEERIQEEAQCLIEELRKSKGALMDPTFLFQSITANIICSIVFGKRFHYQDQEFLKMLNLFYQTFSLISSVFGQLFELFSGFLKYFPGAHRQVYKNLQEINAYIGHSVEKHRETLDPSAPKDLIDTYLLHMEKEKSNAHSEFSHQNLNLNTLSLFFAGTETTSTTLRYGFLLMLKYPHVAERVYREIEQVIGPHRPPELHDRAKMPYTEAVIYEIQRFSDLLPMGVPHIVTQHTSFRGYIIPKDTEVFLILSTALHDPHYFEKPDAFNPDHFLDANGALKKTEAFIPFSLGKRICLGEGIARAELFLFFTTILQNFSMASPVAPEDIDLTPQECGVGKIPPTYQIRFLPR
Text: as §1

CYP 2D6 = CYP 2D6 (Homo sapiens, UniProt P10635); assay: CYP inhibition with probe substrate; conditions: probe substrate dextromethorphan
Text: as §1

CYP 2C8 = target: T4, CYP 2C8 (Homo sapiens, UniProt P10632); assay: CYP inhibition with probe substrate; conditions: probe substrate amodiaquine
T4 sequence (P10632 1-490): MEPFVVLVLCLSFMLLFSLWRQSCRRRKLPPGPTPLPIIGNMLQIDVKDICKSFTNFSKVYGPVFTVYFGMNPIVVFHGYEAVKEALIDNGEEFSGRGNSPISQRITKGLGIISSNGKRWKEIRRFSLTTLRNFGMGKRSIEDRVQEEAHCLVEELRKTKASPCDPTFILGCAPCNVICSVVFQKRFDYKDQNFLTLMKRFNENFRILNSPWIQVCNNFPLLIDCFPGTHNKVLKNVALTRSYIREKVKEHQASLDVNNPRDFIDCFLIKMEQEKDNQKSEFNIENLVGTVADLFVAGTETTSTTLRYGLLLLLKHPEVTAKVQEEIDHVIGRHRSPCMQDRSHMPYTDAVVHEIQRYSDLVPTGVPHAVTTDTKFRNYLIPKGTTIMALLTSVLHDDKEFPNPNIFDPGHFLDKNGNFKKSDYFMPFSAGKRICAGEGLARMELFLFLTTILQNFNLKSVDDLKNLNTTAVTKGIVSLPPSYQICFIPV
Text: as §1

CYP 2E1 = CYP 2E1 (Homo sapiens, UniProt P05181); assay: CYP inhibition with probe substrate; conditions: coincubation, probe substrate chlorzoxazone; read-out: Co- IC50
Text: as §1

[1] = Unbound fraction (fu) in human plasma
human CYP enzymes = assay: CYP induction, all isoforms tested (summary)
Text: as §1

[2] = 30-min preincubation, read-out: Pre- IC50 (+ NADPH)
[3] = coincubation, read-out: Co- IC50

Sequence of CYP 2E1 (P05181 whole entry): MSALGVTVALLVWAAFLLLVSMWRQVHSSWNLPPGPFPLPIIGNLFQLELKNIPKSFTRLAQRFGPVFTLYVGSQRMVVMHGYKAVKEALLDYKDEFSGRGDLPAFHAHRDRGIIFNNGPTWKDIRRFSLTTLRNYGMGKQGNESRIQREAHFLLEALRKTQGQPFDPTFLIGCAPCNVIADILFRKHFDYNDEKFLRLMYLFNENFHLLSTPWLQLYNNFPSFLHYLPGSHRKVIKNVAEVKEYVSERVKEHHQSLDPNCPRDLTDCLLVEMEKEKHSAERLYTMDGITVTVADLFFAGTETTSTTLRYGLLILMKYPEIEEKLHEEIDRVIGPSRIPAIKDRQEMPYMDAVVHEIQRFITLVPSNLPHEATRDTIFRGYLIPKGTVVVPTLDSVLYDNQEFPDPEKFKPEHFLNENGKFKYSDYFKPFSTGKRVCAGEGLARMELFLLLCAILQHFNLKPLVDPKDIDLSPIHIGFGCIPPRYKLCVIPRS
Sequence of CYP 2C9 (P11712 whole entry): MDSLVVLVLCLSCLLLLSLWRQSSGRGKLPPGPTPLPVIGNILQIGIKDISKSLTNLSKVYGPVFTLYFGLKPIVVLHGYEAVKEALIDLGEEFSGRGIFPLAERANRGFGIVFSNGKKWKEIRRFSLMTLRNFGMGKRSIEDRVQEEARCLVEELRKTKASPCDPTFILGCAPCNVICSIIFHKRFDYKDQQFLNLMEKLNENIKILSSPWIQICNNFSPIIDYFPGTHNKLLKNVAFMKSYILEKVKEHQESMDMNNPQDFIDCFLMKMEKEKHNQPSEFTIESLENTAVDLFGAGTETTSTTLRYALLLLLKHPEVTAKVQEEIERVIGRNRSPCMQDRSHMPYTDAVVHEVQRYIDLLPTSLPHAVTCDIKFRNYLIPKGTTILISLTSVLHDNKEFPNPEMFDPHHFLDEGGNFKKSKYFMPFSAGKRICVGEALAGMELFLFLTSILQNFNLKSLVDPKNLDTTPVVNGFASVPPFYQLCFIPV
Sequence of CYP 2D6 (P10635 whole entry): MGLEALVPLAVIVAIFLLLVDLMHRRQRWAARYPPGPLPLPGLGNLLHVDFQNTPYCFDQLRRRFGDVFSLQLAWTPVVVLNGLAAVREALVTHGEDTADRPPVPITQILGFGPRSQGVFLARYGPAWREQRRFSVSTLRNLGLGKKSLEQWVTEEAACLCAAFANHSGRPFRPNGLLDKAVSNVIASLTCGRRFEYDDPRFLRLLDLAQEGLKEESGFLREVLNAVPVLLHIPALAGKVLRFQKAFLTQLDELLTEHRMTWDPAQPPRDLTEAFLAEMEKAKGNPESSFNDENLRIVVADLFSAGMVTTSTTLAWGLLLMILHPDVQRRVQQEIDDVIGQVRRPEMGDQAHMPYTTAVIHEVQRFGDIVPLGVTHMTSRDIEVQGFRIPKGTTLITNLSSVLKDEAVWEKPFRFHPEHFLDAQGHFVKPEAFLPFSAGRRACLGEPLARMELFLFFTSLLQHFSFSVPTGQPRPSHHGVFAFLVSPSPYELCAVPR

In the case of `CC1CS(=O)(=O)CCN1n1cc(SCC(N)C(=O)O)ccc1=O` (stereo not drawn) [M-4], the IC50 (CYP 1A2; [2]) is reported as over 20 µM, the IC50 (CYP 1A2; [3]) is reported as over 20 µM and the “TDI (time-dependent inhibition)” value (CYP 1A2) is reported as “No”. For the same molecule, the IC50 (CYP 2C9; [2]) was over 20 µM, the IC50 (CYP 2C9; [3]) was over 20 µM and the “TDI (time-dependent inhibition)” value (CYP 2C9) was “No”. For the same molecule, the IC50 (CYP 2A6) was over 20 µM, the IC50 (CYP 2B6; [2]) was over 20 µM and the IC50 (CYP 2B6; [3]) was over 20 µM. For the same molecule, the “TDI (time-dependent inhibition)” value (CYP 2B6) was “No”, the IC50 (CYP 2D6; [2]) was over 20 µM and the IC50 (CYP 2D6; [3]) was over 20 µM. For the same molecule, the “TDI (time-dependent inhibition)” value (CYP 2D6) was “No”, the IC50 (CYP 2C8; [2]) was over 20 µM and the IC50 (CYP 2C8; [3]) was over 20 µM. The “TDI (time-dependent inhibition)” value (CYP 2C8) was “No”, the IC50 (CYP 2E1) was over 20 µM and the fraction unbound [1] was 1. The “concentration up to which induction of CYP mRNA or activity was absent” value (“concentration up to which induction” for short) (human CYP enzymes) was at most 80 µg/mL.
For `CC1CS(=O)(=O)CCN1N` (stereo not drawn) [M-6], the IC50 (CYP 1A2; [2]) was over 100 µM, the IC50 (CYP 1A2; [3]) was over 100 µM and the “TDI (time-dependent inhibition)” value (CYP 1A2) was “No”. For the same molecule, the IC50 (CYP 2C9; [2]) was over 100 µM, the IC50 (CYP 2C9; [3]) was over 100 µM and the “TDI (time-dependent inhibition)” value (CYP 2C9) was “No”. The IC50 (CYP 2A6) was over 100 µM, the IC50 (CYP 2B6; [2]) was over 100 µM and the IC50 (CYP 2B6; [3]) was over 100 µM. For the same molecule, the “TDI (time-dependent inhibition)” value (CYP 2B6) was “No”, the IC50 (CYP 2D6; [2]) was over 100 µM and the IC50 (CYP 2D6; [3]) was over 100 µM. For the same molecule, the “TDI (time-dependent inhibition)” value (CYP 2D6) was “No”, the IC50 (CYP 2C8; [2]) was over 100 µM and the IC50 (CYP 2C8; [3]) was over 100 µM. For the same molecule, the “TDI (time-dependent inhibition)” value (CYP 2C8) was “No”, the IC50 (CYP 2E1) was over 100 µM and the fraction unbound [1] was 1. For the same molecule, the “concentration up to which induction” value (human CYP enzymes) was at most 90 µg/mL.
For `CC1CS(=O)(=O)CCN1/N=C/c1ccc([N+](=O)[O-])o1` (stereo not drawn) [Nifurtimox, (E)-N-(3-methyl-1,1-dioxo-1,4-thiazinan-4-yl)-1-(5-nitrofuran-2-yl) methanimine, reference compound], the IC50 (CYP 1A2; [2]) was over 50 µM, the IC50 (CYP 1A2; [3]) was over 50 µM and the “TDI (time-dependent inhibition)” value (CYP 1A2) was “No”. The IC50 (CYP 2C9; [2]) was over 50 µM, the IC50 (CYP 2C9; [3]) was over 50 µM and the “TDI (time-dependent inhibition)” value (CYP 2C9) was “No”. The IC50 (CYP 2A6) was over 50 µM, the IC50 (CYP 2B6; [2]) was over 50 µM and the IC50 (CYP 2B6; [3]) was over 50 µM. The “TDI (time-dependent inhibition)” value (CYP 2B6) was “No”, the IC50 (CYP 2D6; [2]) was over 50 µM and the IC50 (CYP 2D6; [3]) was over 50 µM. The “TDI (time-dependent inhibition)” value (CYP 2D6) was “No”, the IC50 (CYP 2C8; [2]) was over 50 µM and the IC50 (CYP 2C8; [3]) was over 50 µM. The “TDI (time-dependent inhibition)” value (CYP 2C8) was “No”, the IC50 (CYP 2E1) was over 50 µM and the fraction unbound [1] was 0.576. For the same molecule, the “concentration up to which induction” value (human CYP enzymes) was “up to 30 mg/L”.

— article PMC10661964 (Current Drug Metabolism, 2023)
